Data as given in ChEMBL document CHEMBL3352777, “Substituted thieno[2,3-b]thiophenes and related congeners: Synthesis, β-glucuronidase inhibition activity, crystal structure, and POM analyses” (Bioorg Med Chem, 2014).

How the values were obtained:
[1] = cells; settings: Homo sapiens, PC-3, 48 h
Description: Cytotoxic activity against human PC3 cells after 48 hrs by MTT assay

[2] = target: Carbonic anhydrase (Homo sapiens) (UniProt P00918+P43166+P00915+P07451+P23280+O43570+Q9ULX7+Q16790+P22748+Q8N1Q1+Q9Y2D0+P35218); test: Inhibition of carbonic anhydrase (unknown origin) at 500 uM; type: protein assay
[3] = species: Homo sapiens; test: Inhibition of alpha-chymotrypsin (unknown origin) using N-succinyl-L-phenylalanine-p-nitroanilide substrate at 500 uM
[4] = target: Carbonic anhydrase; test: Inhibition of carbonic anhydrase (unknown origin); type: protein assay, Homo sapiens
[5] = Inhibition of buttermilk xanthine oxidase (unknown origin) at 500 uM incubated for 10 mins by spectrophotometry
[6] = target: T1, Beta-glucuronidase (Homo sapiens) (UniProt P08236); test: Inhibition of beta-glucuronidase (unknown origin) at 500 uM using p-nitrophenyl-beta-D-glucuronide substrate incubated for 30 mins by spectrophotometry
T1 sequence (whole entry): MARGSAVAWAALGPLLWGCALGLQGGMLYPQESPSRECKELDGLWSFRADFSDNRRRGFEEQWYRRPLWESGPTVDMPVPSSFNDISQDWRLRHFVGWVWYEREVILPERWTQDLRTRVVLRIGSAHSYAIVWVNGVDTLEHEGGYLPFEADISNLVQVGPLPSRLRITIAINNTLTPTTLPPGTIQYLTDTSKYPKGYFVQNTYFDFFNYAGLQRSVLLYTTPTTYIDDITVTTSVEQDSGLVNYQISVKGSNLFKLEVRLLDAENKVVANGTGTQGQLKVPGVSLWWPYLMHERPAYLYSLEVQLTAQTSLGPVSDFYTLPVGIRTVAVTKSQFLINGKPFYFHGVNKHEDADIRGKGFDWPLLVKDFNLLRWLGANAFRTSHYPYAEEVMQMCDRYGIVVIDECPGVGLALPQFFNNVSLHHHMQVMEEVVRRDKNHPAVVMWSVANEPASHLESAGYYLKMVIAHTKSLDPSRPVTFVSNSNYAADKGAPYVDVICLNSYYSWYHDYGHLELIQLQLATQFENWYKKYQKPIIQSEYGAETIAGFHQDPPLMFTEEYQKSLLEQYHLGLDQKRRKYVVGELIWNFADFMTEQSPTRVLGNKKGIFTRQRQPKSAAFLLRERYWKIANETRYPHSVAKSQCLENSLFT

[7] = Inhibition of alpha-chymotrypsin (unknown origin) using N-succinyl-L-phenylalanine-p-nitroanilide substrate; design: species or system Homo sapiens
[8] = Inhibition of buttermilk xanthine oxidase (unknown origin) incubated for 10 mins by spectrophotometry

IC50 [1] | inhibition [2] | inhibition [3] | Structure (SMILES) | other results
> 30 µM | – | – | Cc1c(C(=O)/C=C/NO)sc2sc(C(=O)/C=C/NO)c(-c3ccccc3)c12 | –
> 30 µM | < 50% | < 50% | CCOC(/C=C/C(=O)c1sc2sc(C(=O)/C=C/C(OCC)(OCC)OCC)c(-c3ccccc3)c2c1C)(OCC)OCC | –
> 30 µM | < 50% | < 50% | Cc1c(C(=O)/C=C/N(C)C)sc2sc(C(=O)c3ccc(-c4sc5sc(C(=O)/C=C/N(C)C)c(-c6ccccc6)c5c4C)nc3)c(-c3ccccc3)c12 | –
– | – | – | Cc1c(-c2ccc(C#N)c(=O)[nH]2)sc2sc(-c3ccc(C#N)c(=O)[nH]3)c(-c3ccccc3)c12 | IC50 [4]: 270.13 µM; inhibition [5]: < 50%
0.912 µM | – | – | COc1cccc2c1C(=O)c1c(O)c3c(c(O)c1C2=O)C[C@@](O)(C(=O)CO)C[C@@H]3O[C@H]1C[C@H](N)[C@H](O)[C@H](C)O1 [DOXORUBICIN] | –
> 30 µM | < 50% | – | CC(=O)c1ccc(-c2sc3sc(-c4ccc(C(C)=O)c(C)n4)c(-c4ccccc4)c3c2C)nc1C | –
2.61 µM | – | – | Cc1c(C(=O)c2cc(C#N)c(=N)n(-c3ccccc3)n2)sc2sc(C(=O)c3cc(C#N)c(=N)n(-c4ccccc4)n3)c(-c3ccccc3)c12 | –
> 30 µM | < 50% | < 50% | Cc1c(C(=O)/C=C/N(C)C)sc2sc(C(=O)/C=C/N(C)C)c(-c3ccccc3)c12 | inhibition [5]: < 50%; inhibition [6]: < 50%
13.8 µM | < 50% | < 50% | Cc1c(C(=O)/C(C=O)=N/Nc2ccccc2)sc2sc(C(=O)/C(C=O)=N/Nc3ccccc3)c(-c3ccccc3)c12 | inhibition [5]: < 50%
> 30 µM | – | – | Cc1c(C(/C=C/N(C)C)=C(C#N)C#N)sc2sc(C(/C=C/N(C)C)=C(C#N)C#N)c(-c3ccccc3)c12 | IC50 [7]: 202 µM
– | – | – | Oc1ncnc2[nH]ncc12 [ALLOPURINOL] | IC50 [8]: 2 µM
> 30 µM | – | < 50% | CCOC(=O)c1nn(-c2ccccc2)cc1C(=O)c1sc2sc(C(=O)c3cn(-c4ccccc4)nc3C(=O)OCC)c(-c3ccccc3)c2c1C | inhibition [6]: < 50%
> 30 µM | – | < 50% | CC(=C(C#N)C#N)c1sc2sc(C(C)=C(C#N)C#N)c(-c3ccccc3)c2c1C | IC50 [4]: 441.72 µM; inhibition [5]: < 50%
> 30 µM | < 50% | < 50% | CCOc1nc(-c2sc3sc(-c4ccc(C#N)c(OCC)n4)c(-c4ccccc4)c3c2C)ccc1C#N | IC50 [8]: 14.4 µM
– | – | – | CC(C)C[C@H](NC(=O)[C@@H](NC(=O)N[C@@H](Cc1ccccc1)C(=O)O)C1CCNC(=N)N1)C(=O)N[C@H](C=O)Cc1ccccc1 (stereo partly drawn) [CHYMOSTATIN] | IC50 [7]: 5.7 µM
> 30 µM | < 50% | < 50% | Cc1c(-c2ccc(C(=O)O)c(=O)[nH]2)sc2sc(-c3ccc(C(=O)O)c(=O)[nH]3)c(-c3ccccc3)c12 | inhibition [5]: < 50%
> 30 µM | < 50% | – | Cc1c(/C(=C/C=C(\C#N)C(N)=O)N(C)C)sc2sc(/C(=C/C=C(\C#N)C(N)=O)N(C)C)c(-c3ccccc3)c12 | IC50 [8]: 43.1 µM
> 30 µM | < 50% | < 50% | Cc1c(C(=O)c2cc(C(=O)O)c(=O)[nH]n2)sc2sc(C(=O)c3cc(C(=O)O)c(=O)[nH]n3)c(-c3ccccc3)c12 | IC50 [8]: 121 µM
